≈ marks a conversion by molar mass, not a printed value. Where “and” joins values, the source holds several entries; their conditions need not be identical. Equal values may be shown once. Read-outs that look alike come from different tables or passages of the source.
How the values were obtained:
[1] = LogD
[2] = biological target: T1, Abl(h) (Homo sapiens, UniProt P00519); assay: biochemical; set-up: In vitro kinase panel profiling, per cent remaining kinase activity at 10 uM; details: atp_concentration=45, read-out: % of control remaining
T1 construct: gene ABL1
T1 sequence (P00519 whole entry): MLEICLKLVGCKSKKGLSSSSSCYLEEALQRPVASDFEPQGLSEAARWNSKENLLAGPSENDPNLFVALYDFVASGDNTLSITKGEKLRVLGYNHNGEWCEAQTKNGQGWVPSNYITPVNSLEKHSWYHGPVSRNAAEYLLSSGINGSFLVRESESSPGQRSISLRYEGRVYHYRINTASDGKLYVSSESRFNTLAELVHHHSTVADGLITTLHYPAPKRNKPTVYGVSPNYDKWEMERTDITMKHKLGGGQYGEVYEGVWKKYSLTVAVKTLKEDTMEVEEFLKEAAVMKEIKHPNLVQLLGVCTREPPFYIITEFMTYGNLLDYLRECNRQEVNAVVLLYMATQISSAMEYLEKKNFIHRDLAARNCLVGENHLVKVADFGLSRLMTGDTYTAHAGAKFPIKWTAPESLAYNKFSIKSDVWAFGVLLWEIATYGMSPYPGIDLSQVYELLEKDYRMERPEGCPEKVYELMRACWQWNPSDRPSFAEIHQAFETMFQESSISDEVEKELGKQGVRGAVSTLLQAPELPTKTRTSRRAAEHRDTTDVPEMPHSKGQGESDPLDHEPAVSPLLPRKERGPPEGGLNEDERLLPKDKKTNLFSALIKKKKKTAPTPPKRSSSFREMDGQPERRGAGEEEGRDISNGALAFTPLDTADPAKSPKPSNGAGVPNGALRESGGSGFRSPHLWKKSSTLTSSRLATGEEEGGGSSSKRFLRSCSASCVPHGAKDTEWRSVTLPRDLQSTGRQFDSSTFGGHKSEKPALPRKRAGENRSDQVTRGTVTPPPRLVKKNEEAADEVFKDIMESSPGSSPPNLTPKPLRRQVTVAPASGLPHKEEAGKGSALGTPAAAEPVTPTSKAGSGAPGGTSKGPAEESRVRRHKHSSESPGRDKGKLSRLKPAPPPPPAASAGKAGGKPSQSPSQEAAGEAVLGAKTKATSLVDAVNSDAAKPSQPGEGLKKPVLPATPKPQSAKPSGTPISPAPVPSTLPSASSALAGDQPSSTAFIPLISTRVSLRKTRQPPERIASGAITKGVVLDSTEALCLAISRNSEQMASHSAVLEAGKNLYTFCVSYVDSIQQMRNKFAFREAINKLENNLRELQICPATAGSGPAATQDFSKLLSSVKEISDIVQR
Source text: (§1) We derisk potential for off-target activity by profiling the compound in a CEREP panel, a standard secondary pharmacology assessment, as well as a kinase panel to derisk a potential hinge-binding motif in our leads, and a PARP panel to derisk activity against human […]. Reassuringly, the compounds are selective, with the only off-targets being moderate human CHRM2 and KOR receptors activity associated with ASAP-0011198.

[3] = biological target: T2, eEF-2K(h) (Homo sapiens, UniProt O00418); assay: biochemical; set-up: In vitro kinase panel profiling, per cent remaining kinase activity at 10 uM; details: atp_concentration=15, read-out: % of control remaining
T2 construct: gene EEF2K
T2 sequence (O00418 1-725): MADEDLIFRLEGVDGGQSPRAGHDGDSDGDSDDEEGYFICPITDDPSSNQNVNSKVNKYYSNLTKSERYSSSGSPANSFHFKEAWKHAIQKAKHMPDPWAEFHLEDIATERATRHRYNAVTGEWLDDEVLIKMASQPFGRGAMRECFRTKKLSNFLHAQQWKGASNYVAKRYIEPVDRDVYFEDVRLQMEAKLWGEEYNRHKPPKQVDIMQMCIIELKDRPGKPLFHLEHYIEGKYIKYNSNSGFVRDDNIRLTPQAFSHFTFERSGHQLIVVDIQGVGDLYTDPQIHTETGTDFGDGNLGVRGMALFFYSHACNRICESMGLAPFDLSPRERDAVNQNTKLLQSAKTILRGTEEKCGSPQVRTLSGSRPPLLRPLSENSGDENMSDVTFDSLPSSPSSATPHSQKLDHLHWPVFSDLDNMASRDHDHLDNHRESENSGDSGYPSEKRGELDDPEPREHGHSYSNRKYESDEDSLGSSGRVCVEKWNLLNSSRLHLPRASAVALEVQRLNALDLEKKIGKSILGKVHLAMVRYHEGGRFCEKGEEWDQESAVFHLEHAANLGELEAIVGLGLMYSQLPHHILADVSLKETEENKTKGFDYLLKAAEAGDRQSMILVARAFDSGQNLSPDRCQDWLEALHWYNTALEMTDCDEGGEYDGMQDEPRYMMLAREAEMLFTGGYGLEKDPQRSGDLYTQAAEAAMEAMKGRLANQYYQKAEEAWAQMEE
Source text: as §1

[4] = biological target: T3, PKBα(h) (Homo sapiens, UniProt P31749); assay: biochemical; set-up: In vitro kinase panel profiling, per cent remaining kinase activity at 10 uM; details: atp_concentration=155, read-out: % of control remaining
T3 construct: gene AKT1
T3 sequence (P31749 whole entry): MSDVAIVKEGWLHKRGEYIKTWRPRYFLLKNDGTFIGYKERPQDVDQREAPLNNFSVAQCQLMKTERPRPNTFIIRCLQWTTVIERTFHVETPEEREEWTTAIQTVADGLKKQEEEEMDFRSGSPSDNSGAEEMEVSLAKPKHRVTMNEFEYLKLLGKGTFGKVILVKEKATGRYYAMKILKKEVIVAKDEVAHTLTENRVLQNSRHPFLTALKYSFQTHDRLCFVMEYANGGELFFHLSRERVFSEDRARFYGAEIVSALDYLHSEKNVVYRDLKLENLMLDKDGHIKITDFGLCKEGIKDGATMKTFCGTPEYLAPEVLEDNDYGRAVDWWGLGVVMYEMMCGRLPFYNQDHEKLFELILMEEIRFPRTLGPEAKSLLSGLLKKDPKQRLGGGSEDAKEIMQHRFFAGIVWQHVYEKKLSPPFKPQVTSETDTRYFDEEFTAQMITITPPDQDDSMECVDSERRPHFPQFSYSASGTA
Source text: as §1

[5] = biological target: T4, SAPK2a(h) (Homo sapiens, UniProt Q16539); assay: biochemical; set-up: In vitro kinase panel profiling, per cent remaining kinase activity at 10 uM; details: atp_concentration=90, read-out: % of control remaining
T4 construct: gene MAPK14
T4 sequence (Q16539 whole entry): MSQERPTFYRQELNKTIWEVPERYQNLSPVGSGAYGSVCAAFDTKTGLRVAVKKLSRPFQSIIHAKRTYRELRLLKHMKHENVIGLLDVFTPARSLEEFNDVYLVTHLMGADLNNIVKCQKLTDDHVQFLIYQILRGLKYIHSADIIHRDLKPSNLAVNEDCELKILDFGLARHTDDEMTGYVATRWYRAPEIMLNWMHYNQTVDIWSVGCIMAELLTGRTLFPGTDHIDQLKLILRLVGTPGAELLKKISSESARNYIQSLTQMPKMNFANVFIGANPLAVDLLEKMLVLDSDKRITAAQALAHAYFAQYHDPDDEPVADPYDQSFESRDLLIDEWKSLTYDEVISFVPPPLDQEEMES
Source text: as §1

[6] = biological target: CDK9/cyclin T1(h) (Homo sapiens, UniProt P50750); assay: biochemical; set-up: In vitro kinase panel profiling, per cent remaining kinase activity at 10 uM; details: atp_concentration=45, read-out: % of control remaining
Source text: as §1

[7] = biological target: T5, PDGFRβ(h) (Homo sapiens, UniProt P09619); assay: biochemical; set-up: In vitro kinase panel profiling, per cent remaining kinase activity at 10 uM; details: atp_concentration=200, read-out: % of control remaining
T5 construct: gene PDGFRB
Source text: as §1

[8] = biological target: CDK1/cyclinB(h) (Homo sapiens, UniProt P06493); assay: biochemical; set-up: In vitro kinase panel profiling, per cent remaining kinase activity at 10 uM; details: atp_concentration=45, read-out: % of control remaining
Sequence of CDK1/cyclinB(h) (P06493 whole entry): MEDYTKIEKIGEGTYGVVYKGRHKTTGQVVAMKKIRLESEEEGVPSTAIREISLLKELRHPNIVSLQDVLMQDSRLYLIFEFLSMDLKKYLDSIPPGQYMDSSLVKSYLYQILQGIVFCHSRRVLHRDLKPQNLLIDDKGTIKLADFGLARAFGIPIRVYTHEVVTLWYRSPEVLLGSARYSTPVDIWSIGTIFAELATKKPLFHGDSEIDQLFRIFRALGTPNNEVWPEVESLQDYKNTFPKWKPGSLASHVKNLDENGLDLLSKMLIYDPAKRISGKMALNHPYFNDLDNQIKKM
Sequence of CDK1/cyclinB(h) (P14635 whole entry partner): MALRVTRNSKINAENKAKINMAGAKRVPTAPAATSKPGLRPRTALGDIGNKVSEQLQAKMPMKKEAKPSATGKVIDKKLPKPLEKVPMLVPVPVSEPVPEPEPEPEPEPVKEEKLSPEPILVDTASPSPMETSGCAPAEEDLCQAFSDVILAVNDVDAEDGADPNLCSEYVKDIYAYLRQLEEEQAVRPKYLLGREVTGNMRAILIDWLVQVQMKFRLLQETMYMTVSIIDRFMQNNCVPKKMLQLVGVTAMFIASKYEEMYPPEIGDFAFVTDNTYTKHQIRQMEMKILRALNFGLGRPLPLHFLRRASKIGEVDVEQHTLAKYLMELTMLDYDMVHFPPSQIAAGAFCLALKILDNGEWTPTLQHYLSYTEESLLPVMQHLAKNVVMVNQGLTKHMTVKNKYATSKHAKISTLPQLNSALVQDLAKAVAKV
Source text: as §1

[9] = biological target: T6, CHK1(h) (Homo sapiens, UniProt O14757); assay: biochemical; set-up: In vitro kinase panel profiling, per cent remaining kinase activity at 10 uM; details: atp_concentration=90, read-out: % of control remaining
T6 construct: gene CHEK1
T6 sequence (O14757 1-476): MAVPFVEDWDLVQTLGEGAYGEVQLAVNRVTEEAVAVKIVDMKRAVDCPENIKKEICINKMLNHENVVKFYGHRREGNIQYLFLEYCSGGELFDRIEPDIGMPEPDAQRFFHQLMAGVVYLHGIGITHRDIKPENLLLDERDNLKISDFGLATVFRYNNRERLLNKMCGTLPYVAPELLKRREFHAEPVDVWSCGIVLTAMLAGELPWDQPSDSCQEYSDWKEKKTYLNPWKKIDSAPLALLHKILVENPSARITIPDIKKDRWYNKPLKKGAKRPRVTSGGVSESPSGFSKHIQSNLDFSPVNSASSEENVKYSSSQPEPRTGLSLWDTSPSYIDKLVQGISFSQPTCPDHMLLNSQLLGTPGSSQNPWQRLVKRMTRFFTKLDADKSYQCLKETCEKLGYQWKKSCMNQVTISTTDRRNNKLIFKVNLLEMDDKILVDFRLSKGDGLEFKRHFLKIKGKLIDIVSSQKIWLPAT
Source text: as §1

[10] = biological target: T7, PI3 Kinase (p110β/p85α)(h) (Homo sapiens, UniProt P42338); assay: biochemical; set-up: In vitro kinase panel profiling, per cent remaining kinase activity at 10 uM; details: atp_concentration=200, read-out: % of control remaining
T7 construct: gene PIK3CB
T7 sequence (P42338 whole entry): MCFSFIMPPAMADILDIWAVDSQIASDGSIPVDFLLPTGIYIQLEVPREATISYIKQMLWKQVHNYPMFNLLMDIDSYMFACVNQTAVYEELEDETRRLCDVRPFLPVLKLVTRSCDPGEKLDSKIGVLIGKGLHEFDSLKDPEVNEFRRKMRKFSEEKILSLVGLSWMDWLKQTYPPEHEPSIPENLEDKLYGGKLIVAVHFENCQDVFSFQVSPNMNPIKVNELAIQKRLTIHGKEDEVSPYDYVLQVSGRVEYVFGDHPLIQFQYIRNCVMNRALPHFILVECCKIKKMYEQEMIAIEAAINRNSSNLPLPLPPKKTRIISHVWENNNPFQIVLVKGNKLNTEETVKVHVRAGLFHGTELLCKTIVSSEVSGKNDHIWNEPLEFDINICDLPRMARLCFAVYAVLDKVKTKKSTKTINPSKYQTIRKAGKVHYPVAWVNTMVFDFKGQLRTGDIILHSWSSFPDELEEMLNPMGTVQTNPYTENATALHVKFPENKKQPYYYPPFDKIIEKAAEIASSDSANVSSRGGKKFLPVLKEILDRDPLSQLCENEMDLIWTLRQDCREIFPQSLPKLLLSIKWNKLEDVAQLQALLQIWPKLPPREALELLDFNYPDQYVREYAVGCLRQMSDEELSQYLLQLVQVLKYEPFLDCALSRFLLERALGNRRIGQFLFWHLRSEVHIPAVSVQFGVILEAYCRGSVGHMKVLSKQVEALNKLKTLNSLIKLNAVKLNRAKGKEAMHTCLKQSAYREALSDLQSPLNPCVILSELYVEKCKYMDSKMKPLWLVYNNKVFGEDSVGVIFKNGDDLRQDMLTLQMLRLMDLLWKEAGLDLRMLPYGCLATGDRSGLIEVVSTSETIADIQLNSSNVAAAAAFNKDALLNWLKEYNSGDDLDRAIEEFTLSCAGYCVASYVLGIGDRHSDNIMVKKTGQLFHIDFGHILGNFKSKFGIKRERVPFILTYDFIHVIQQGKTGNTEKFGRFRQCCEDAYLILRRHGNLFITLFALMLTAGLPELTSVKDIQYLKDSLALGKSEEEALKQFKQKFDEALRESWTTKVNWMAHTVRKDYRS
T7 sequence (P27986 whole entry partner): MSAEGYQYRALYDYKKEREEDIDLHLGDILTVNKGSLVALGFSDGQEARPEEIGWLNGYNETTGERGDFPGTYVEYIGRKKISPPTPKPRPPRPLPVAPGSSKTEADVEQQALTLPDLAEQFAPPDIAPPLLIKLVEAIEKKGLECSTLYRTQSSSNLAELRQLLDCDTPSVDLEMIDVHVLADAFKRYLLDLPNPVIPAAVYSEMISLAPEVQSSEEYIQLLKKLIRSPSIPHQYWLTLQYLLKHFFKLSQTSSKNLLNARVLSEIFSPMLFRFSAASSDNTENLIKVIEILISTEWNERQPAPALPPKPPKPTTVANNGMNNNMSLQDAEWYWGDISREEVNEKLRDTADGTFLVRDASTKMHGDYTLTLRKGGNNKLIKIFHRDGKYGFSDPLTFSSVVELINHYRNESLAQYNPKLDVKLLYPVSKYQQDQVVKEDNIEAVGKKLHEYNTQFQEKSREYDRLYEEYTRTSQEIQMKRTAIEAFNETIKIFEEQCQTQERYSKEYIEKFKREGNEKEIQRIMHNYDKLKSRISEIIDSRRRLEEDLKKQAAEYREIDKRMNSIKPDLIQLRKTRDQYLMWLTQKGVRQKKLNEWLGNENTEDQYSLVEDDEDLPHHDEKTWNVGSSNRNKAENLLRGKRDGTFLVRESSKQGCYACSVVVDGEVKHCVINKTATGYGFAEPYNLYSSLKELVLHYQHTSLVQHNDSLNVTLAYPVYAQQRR
Source text: as §1

[11] = Permeability Papp (AB) MDR1/MDCKII; details: for papp_a_to_b_mean / papp_b_to_a_mean / perc_recovery_a_to_b_mean / perc_recovery_b_to_a_mean: In vitro MDR1-MDCKII permeability; for papp_b_to_a_mean: B to A; for perc_recovery_a_to_b_mean / perc_recovery_a_to_b_inhibitor_mean: recovery A to B; for perc_recovery_b_to_a_mean / perc_recovery_b_to_a_inhibitor_mean: recovery B to A
[12] = In vitro kinetic solubility; details: for solubility_mean: In vitro kinetic solubility, ph 7.4
[13] = MDR1-MDCKII, with inhibitor Cyclosporin A
[14] = MDR1-MDCKII, with inhibitor Verapamil

CC(C)[C@@H](Nc1ncnc2[nH]c(-c3cnn(C)c3C#N)cc12)c1ccc2c(n1)OCCO2 [ASAP-0010716]
logd ([1]; pH 7.4, In vitro LogD): 3.9
remaining activity at 10 µM ([2]; batch_name=ASAP-0010716-002): 57%
remaining activity at 10 µM ([3]; batch_name=ASAP-0010716-002): 106%
remaining activity at 10 µM ([4]; batch_name=ASAP-0010716-002): 94%
remaining activity at 10 µM ([5]; batch_name=ASAP-0010716-002): 101%
remaining activity at 10 µM ([6]; batch_name=ASAP-0010716-002): 84%
remaining activity at 10 µM ([7]; batch_name=ASAP-0010716-002): 93%
remaining activity at 10 µM ([8]; batch_name=ASAP-0010716-002): 88%
remaining activity at 10 µM ([9]; batch_name=ASAP-0010716-002): 120%
remaining activity at 10 µM ([10]; batch_name=ASAP-0010716-002): 84%
papp_a_to_b_mean ([11]; A to B, mean): 14.6 ×10⁻⁶ cm/s
papp_a_to_b_mean ([11]; A to B, no inhibitor): 1.05 ×10⁻⁶ cm/s and 1.02 ×10⁻⁶ cm/s and 0.676 ×10⁻⁶ cm/s
papp_b_to_a_mean ([11]; no inhibitor): 6.5 ×10⁻⁶ cm/s and 6.1 ×10⁻⁶ cm/s and 8.26 ×10⁻⁶ cm/s
perc_recovery_a_to_b_mean ([11]; mean): 85.7%
perc_recovery_a_to_b_mean ([11]; no inhibitor): 67.5% and 74.0% and 87.7%
perc_recovery_b_to_a_mean ([11]; no inhibitor): 70.0% and 84.4% and 95.1%
papp_a_to_b_inhibitor_mean ([11]; MDR1-MDCKII, A to B, with inhibitor Cyclosporin A): 4.51 ×10⁻⁶ cm/s
perc_recovery_a_to_b_inhibitor_mean [11, 13]: 115.0% and 75.2%
perc_recovery_a_to_b_inhibitor_mean [11, 14]: 107.0%
perc_recovery_b_to_a_inhibitor_mean [11, 13]: 106.0% and 78.2%
perc_recovery_b_to_a_inhibitor_mean [11, 14]: 88.6%
solubility_mean [12]: 50 µM (≈ 21.5 µg/mL)

CNCc1cc(-c2cc3c(N[C@@H](c4ccc5c(c4)S(=O)(=O)CCC5)C(C)C)ncnc3[nH]2)co1 [ASAP-0011176]
logd ([1]; pH 7.4, In vitro LogD): 2.2
remaining activity at 10 µM ([2]; batch_name=ASAP-0011176-002): 51%
remaining activity at 10 µM ([3]; batch_name=ASAP-0011176-002): 82%
remaining activity at 10 µM ([4]; batch_name=ASAP-0011176-002): 96%
remaining activity at 10 µM ([5]; batch_name=ASAP-0011176-002): 97%
remaining activity at 10 µM ([6]; batch_name=ASAP-0011176-002): 40%
remaining activity at 10 µM ([7]; batch_name=ASAP-0011176-002): 89%
remaining activity at 10 µM ([8]; batch_name=ASAP-0011176-002): 97%
remaining activity at 10 µM ([9]; batch_name=ASAP-0011176-002): 111%
remaining activity at 10 µM ([10]; batch_name=ASAP-0011176-002): 92%
papp_a_to_b_mean ([11]; A to B, mean): 2.61 ×10⁻⁶ cm/s
papp_a_to_b_mean ([11]; A to B, no inhibitor): 0.0775 ×10⁻⁶ cm/s and 0.0947 ×10⁻⁶ cm/s
papp_b_to_a_mean ([11]; no inhibitor): 0.15 ×10⁻⁶ cm/s and 0.137 ×10⁻⁶ cm/s
perc_recovery_a_to_b_mean ([11]; mean): 78.9%
perc_recovery_a_to_b_mean ([11]; no inhibitor): 64.8% and 63.4%
perc_recovery_b_to_a_mean ([11]; no inhibitor): 60.4% and 68.7%
perc_recovery_a_to_b_inhibitor_mean [11, 13]: 78.6%
perc_recovery_a_to_b_inhibitor_mean [11, 14]: 67.3%
perc_recovery_b_to_a_inhibitor_mean [11, 13]: 83.0%
perc_recovery_b_to_a_inhibitor_mean [11, 14]: 62.0%
solubility_mean [12]: 345 µM (≈ 165 µg/mL)

CC(C)C(Nc1ncnc2[nH]c(C(=O)NC3CCN(C)C3)cc12)c1ccc2c(c1)S(=O)(=O)CCC2 (centres unmarked) [ASAP-0011198]
logd [1]: 1.6
logd ([1]; pH 7.4): 1.6
remaining activity at 10 µM ([2]; batch_name=ASAP-0011198-002): 100%
remaining activity at 10 µM ([3]; batch_name=ASAP-0011198-002): 89%
remaining activity at 10 µM ([4]; batch_name=ASAP-0011198-002): 88%
remaining activity at 10 µM ([5]; batch_name=ASAP-0011198-002): 97%
remaining activity at 10 µM ([6]; batch_name=ASAP-0011198-002): 108%
remaining activity at 10 µM ([7]; batch_name=ASAP-0011198-002): 83%
remaining activity at 10 µM ([8]; batch_name=ASAP-0011198-002): 103%
remaining activity at 10 µM ([9]; batch_name=ASAP-0011198-002): 118%
remaining activity at 10 µM ([10]; batch_name=ASAP-0011198-002): 99%
papp_a_to_b_mean ([11]; A to B, no inhibitor): 0.0631 ×10⁻⁶ cm/s
papp_b_to_a_mean ([11]; no inhibitor): 0.0474 ×10⁻⁶ cm/s
perc_recovery_a_to_b_mean ([11]; mean): 94.6%
perc_recovery_a_to_b_mean ([11]; no inhibitor): 86.2% and 71.8%
perc_recovery_b_to_a_mean ([11]; no inhibitor): 93.1% and 82.5%
perc_recovery_a_to_b_inhibitor_mean [11, 13]: 100.0% and 74.6%
perc_recovery_b_to_a_inhibitor_mean [11, 13]: 100.0% and 87.0%
Papp A→B ([11]; dog, MDCK-MDR1, Papp (AB) MDR1/MDCKII, A to B): 2.9 ×10⁻⁶ cm/s
solubility kinetic [12]: 392 µM (≈ 195 µg/mL)
solubility ([12]; pH 7.4): 392 µM (≈ 195 µg/mL)

Cn1ncc(-c2cc3c(N[C@@H](c4ccc5c(n4)OCCO5)C(C)(C)C)ncnc3[nH]2)c1C#N [ASAP-0011221]
logd ([1]; pH 7.4, In vitro LogD): 3.3
remaining activity at 10 µM ([2]; batch_name=ASAP-0011221-002): 81%
remaining activity at 10 µM ([3]; batch_name=ASAP-0011221-002): 124%
remaining activity at 10 µM ([4]; batch_name=ASAP-0011221-002): 103%
remaining activity at 10 µM ([5]; batch_name=ASAP-0011221-002): 106%
remaining activity at 10 µM ([6]; batch_name=ASAP-0011221-002): 130%
remaining activity at 10 µM ([7]; batch_name=ASAP-0011221-002): 100%
remaining activity at 10 µM ([8]; batch_name=ASAP-0011221-002): 97%
remaining activity at 10 µM ([9]; batch_name=ASAP-0011221-002): 125%
remaining activity at 10 µM ([10]; batch_name=ASAP-0011221-002): 91%
papp_a_to_b_mean ([11]; A to B, mean): 14.0 ×10⁻⁶ cm/s
papp_a_to_b_mean ([11]; A to B, no inhibitor): 2.76 ×10⁻⁶ cm/s
papp_b_to_a_mean ([11]; no inhibitor): 5.51 ×10⁻⁶ cm/s
perc_recovery_a_to_b_mean ([11]; mean): 84.8%
perc_recovery_a_to_b_mean ([11]; no inhibitor): 94.8%
perc_recovery_b_to_a_mean ([11]; no inhibitor): 101.0%
perc_recovery_a_to_b_inhibitor_mean [11, 13]: 61.6%
perc_recovery_b_to_a_inhibitor_mean [11, 13]: 62.4%
solubility_mean [12]: 24 µM (≈ 10.7 µg/mL)

— article doi:10.1101/2024.08.19.608619, “Discovery of potent SARS-CoV-2 nsp3 macrodomain inhibitors uncovers lack of translation to cellular antiviral response” (bioRxiv, 2024)
